“And” between values parts separate entries of the source, which are not always exact repeats. Equal entries are not always repeated. Structures can show the parent of a compound that is named as a salt. Where two headings read alike, the source gives them in different places.
Experiments:
[1] = test system: SARS-CoV-2; assay: Test of direct killing of virus; type: cell-based
[2] = test system: SARS-CoV-2; details: for Inhibition rate to SARS-CoV-2 induced cell death: drug 1 hour after infection
[3] = test system: Vero E6 cells; assay: Toxicity test to Vero E6 cells (CCK8); details: 3 days
[4] = test system: SARS-CoV-2; assay: microbe, parasite or virus in culture
[5] = test system: SARS-CoV-2; assay: Inhibition of Vero E6 cell death induced by SARS-CoV-2, simultaneous addition of drug and virus; details: for Inhibition rate to SARS-CoV-2 induced cell death: simultaneous addition
[6] = test system: tracheal excretion of phenol red of mice; assay: Tracheal excretion of phenol red in mice; details: dose 30 mg/kg intragastric, 7 days; 546 nm
[7] = test system: asthma of guinea pigs induced by acetylcholine and histamine phosphate; assay: Asthmatic guinea pigs induced by acetylcholine combined with histamine phosphate (Example 3)
[8] = test system: asthma of guinea pigs induced by acetylcholine and histamine phosphate; assay: Asthmatic guinea pigs induced by acetylcholine combined with histamine phosphate (Example 9)
[9] = test system: LPS-induced fever in rats; assay: LPS induced rat fever model; details: dose 200 mg/kg
[10] = test system: capillary discharge sputum volume in rats; assay: Capillary discharge sputum volume in rats (Example 3); details: dose 200 mg/kg intragastric, 7 days; 2 h collection
[11] = test system: capillary discharge sputum volume in rats; assay: Capillary discharge sputum volume in rats (Example 9); details: dose 0.2 g/kg intragastric, 7 days
[12] = test system: acute pharyngitis rats; assay: Acute pharyngitis model in rat, serum IL-6 and TNF-α by ELISA; details: dose 5 mg/kg, 3 days
[13] = test system: influenza virus FM1; type: in vivo, ICR mice; details: dose 27.5 mg/kg, 7 days
[14] = test system: influenza virus FM1; type: in vivo, ICR mice; details: dose 27.5 mg/kg
[15] = test system: influenza virus FM1; type: in vivo, ICR mice
[16] = test system: concentrated ammonia water induced cough in mice; assay: Concentrated ammonia water induced cough test in mice (Example 3); type: in vivo, ICR mice; details: dose 20 mg/kg intragastric, 7 d
[17] = test system: concentrated ammonia water induced cough in mice; assay: Concentrated ammonia water induced cough test in mice (Example 9, dropping pills); type: in vivo, ICR mice; details: dose 0.02 g/kg intragastric, 7 days
[18] = addition of the drug after infection
[19] = concentration 0.064 μM, 0.064 µM
[20] = simultaneous addition of the drug and virus
[21] = dose 60 mg/kg intragastric, 7 d
[22] = dose 0.06 g/kg intragastric, 7 days
[23] = lung tissue homogenate, dose 27.5

OO [Example H2O2, H2O2]
Inhibition rate (killing effect) ([1]; 0.01% incubated with virus 0 min): 82.13 ± 8.64% and 92.94 ± 6.31% | Inhibition rate (killing effect) ([1]; 0.01% incubated with virus 5 min): 98.16 ± 18.42% and 99.25 ± 2.95% | Inhibition rate (killing effect) ([1]; 0.01% incubated with virus 10 min): 89.87 ± 7.26% and 98.25 ± 2.36% | Inhibition rate (killing effect) ([1]; 0.01% incubated with virus 30 min): 102.74 ± 8.56% and 102.50 ± 14.39% | Inhibition rate (killing effect) ([1]; 0.01% incubated with virus 60 min): 95.28 ± 10.93% and 101.35 ± 11.45%

CCC(CC)COC(=O)[C@H](C)N[P@](=O)(OC[C@H]1O[C@@](C#N)(c2ccc3c(N)ncnn23)[C@H](O)[C@@H]1O)Oc1ccccc1 [Remdesivir]
IC50 [2, 18]: 734 nM and 915 nM | TI (CC50/IC50) [2, 18]: > 242.42 | Inhibition rate to SARS-CoV-2 induced cell death [2, 19]: 6.51 ± 7.08% | Inhibition rate to SARS-CoV-2 induced cell death ([2]; concentration 0.32 μM, 0.32 µM): 28.39 ± 11.56% | Inhibition rate to SARS-CoV-2 induced cell death ([2]; concentration 1.6 μM, 1.6 µM): 53.50 ± 3.37% | Inhibition rate to SARS-CoV-2 induced cell death ([2]; concentration 8 μM, 8 µM): 92.29 ± 6.68% | Inhibition rate to SARS-CoV-2 induced cell death ([2]; concentration 40 μM, 40 µM): 94.31 ± 5.01% | Inhibition rate to SARS-CoV-2 induced cell death ([2]; concentration 200 μM, 200 µM): 98.83 ± 2.97% | Cell survival rate ([3]; concentration 0.064 μM): 101.58 ± 3.33% and 95.44 ± 10.01% | Cell survival rate ([3]; concentration 0.32 μM): 99.55 ± 10.53% and 93.59 ± 6.96% | Cell survival rate ([3]; concentration 1.6 μM): 91.37 ± 10.73% and 98.11 ± 7.16% | Cell survival rate ([3]; concentration 8 μM): 87.35 ± 4.25% and 90.08 ± 1.88% | Cell survival rate ([3]; concentration 40 μM): 76.24 ± 8.59% and 77.22 ± 11.23% | Cell survival rate ([3]; concentration 200 μM): 53.84 ± 3.48% and 71.58 ± 3.12% | inhibition at 0.064 µM ([4]; Severe acute respiratory syndrome coronavirus 2, Vero C1008, 1 h, read-out: Inhibition rate to SARS-CoV-2 induced cell death, drug 1 hour after infection, concentration 0.064 μM): 7.48 ± 11.8% | inhibition at 0.32 µM ([4]; Severe acute respiratory syndrome coronavirus 2, Vero C1008, 1 h, read-out: Inhibition rate to SARS-CoV-2 induced cell death, drug 1 hour after infection, concentration 0.32 μM): 46.3 ± 15.2% | inhibition at 1.6 µM ([4]; Severe acute respiratory syndrome coronavirus 2, Vero C1008, 1 h, read-out: Inhibition rate to SARS-CoV-2 induced cell death, drug 1 hour after infection, concentration 1.6 μM): 61.5 ± 6.96% | inhibition at 8 µM ([4]; Severe acute respiratory syndrome coronavirus 2, Vero C1008, 1 h, read-out: Inhibition rate to SARS-CoV-2 induced cell death, drug 1 hour after infection, concentration 8 μM): 73.4 ± 3.67% | inhibition at 40 µM ([4]; Severe acute respiratory syndrome coronavirus 2, Vero C1008, 1 h, read-out: Inhibition rate to SARS-CoV-2 induced cell death, drug 1 hour after infection, concentration 40 μM): 91.2 ± 9.91% | inhibition at 200 µM ([4]; Severe acute respiratory syndrome coronavirus 2, Vero C1008, 1 h, read-out: Inhibition rate to SARS-CoV-2 induced cell death, drug 1 hour after infection, concentration 200 μM): 100 ± 9.98% | IC50 ([4]; Severe acute respiratory syndrome coronavirus 2, Vero C1008, addition of the drug after infection): 825 ± 128 nM | inhibition at 0.32 µM ([5]; Severe acute respiratory syndrome coronavirus 2, Vero C1008, read-out: Inhibition rate to SARS-CoV-2 induced cell death, simultaneous addition, concentration 0.32 μM): 21.3 ± 12.8% | inhibition at 1.6 µM ([5]; Severe acute respiratory syndrome coronavirus 2, Vero C1008, read-out: Inhibition rate to SARS-CoV-2 induced cell death, simultaneous addition, concentration 1.6 μM): 56 ± 7.66% | inhibition at 8 µM ([5]; Severe acute respiratory syndrome coronavirus 2, Vero C1008, read-out: Inhibition rate to SARS-CoV-2 induced cell death, simultaneous addition, concentration 8 μM): 89.2 ± 1.29% | inhibition at 40 µM ([5]; Severe acute respiratory syndrome coronavirus 2, Vero C1008, read-out: Inhibition rate to SARS-CoV-2 induced cell death, simultaneous addition, concentration 40 μM): 95.8 ± 8.77% | inhibition at 200 µM ([5]; Severe acute respiratory syndrome coronavirus 2, Vero C1008, read-out: Inhibition rate to SARS-CoV-2 induced cell death, simultaneous addition, concentration 200 μM): 98.9 ± 3.47% | IC50 ([5]; Severe acute respiratory syndrome coronavirus 2, Vero C1008, simultaneous addition of the drug and virus): 1120 ± 52 nM | IC50 [5, 20]: 1160 nM and 1080 nM | TI (CC50/IC50) [5, 20]: > 178.89 | Inhibition rate to SARS-CoV-2 induced cell death [5, 19]: 2.80 ± 2.11% and 9.23 ± 5.11% | Inhibition rate to SARS-CoV-2 induced cell death ([5]; concentration 0.32 μM, 0.32 µM): 26.39 ± 6.35% | Inhibition rate to SARS-CoV-2 induced cell death ([5]; concentration 1.6 μM, 1.6 µM): 59.24 ± 13.49% | Inhibition rate to SARS-CoV-2 induced cell death ([5]; concentration 8 μM, 8 µM): 78.78 ± 9.66% | Inhibition rate to SARS-CoV-2 induced cell death ([5]; concentration 40 μM, 40 µM): 91.04 ± 3.06% | Inhibition rate to SARS-CoV-2 induced cell death ([5]; concentration 200 μM, 200 µM): 94.82 ± 0.89%

Nc1c(Br)cc(Br)cc1CN[C@H]1CC[C@H](O)CC1 [ambroxol hydrochloride]
Tracheal excretion amount of phenol red [6]: 0.566 ± 0.201 OD value

Cn1c(=O)c2[nH]cnc2n(C)c1=O [aminophylline]
asthma incubation period, Pre-administration ([7]; 60 mg/kg group, before administration (baseline)): 33.1 ± 9.2 s | asthma incubation period, Post-administration [7, 21]: 123.4 ± 50.3 s | asthma incubation period, extension value (post-pre) [7, 21]: 90.3 ± 51.1 s | Asthma incubation period, pre-administration ([8]; 0.06 g/kg group, before administration (baseline)): 36.9 ± 5.8 s | asthma incubation period, Post-administration [8, 22]: 95.3 ± 37.6 s | asthma incubation period, extension value (post-pre) [8, 22]: 58.4 ± 32.1 s

CC(=O)Oc1ccccc1C(=O)O [aspirin]
Temperature difference (ΔT) ([9]; 1 h after LPS): 0.10 ± 0.34 °C | Temperature difference (ΔT) ([9]; 2 h after LPS): 0.43 ± 0.29 °C | Temperature difference (ΔT) ([9]; 3 h after LPS): 0.42 ± 0.24 °C | Temperature difference (ΔT) ([9]; 4 h after LPS): 0.46 ± 0.34 °C | Temperature difference (ΔT) ([9]; 5 h after LPS): 0.79 ± 0.17 °C | Temperature difference (ΔT) ([9]; 6 h after LPS): 0.88 ± 0.18 °C | Temperature difference (ΔT) ([9]; 7 h after LPS): 0.53 ± 0.24 °C

N[C@@H](CSCC(=O)O)C(=O)O [carbocisteine]
Sputum excretion volume [10]: 18.11 ± 4.32 cm | Sputum excretion volume [11]: 21.56 ± 4.41 cm

C[C@@H]1C[C@H]2[C@@H]3CCC4=CC(=O)C=C[C@]4(C)[C@@]3(F)[C@@H](O)C[C@]2(C)[C@@]1(O)C(=O)CO [dexamethasone]
IL-6 [12]: 146.3 ± 10.4 pg/mL | TNF-α [12]: 218.2 ± 5.8 pg/mL

CCOC(=O)C1=C[C@@H](OC(CC)CC)[C@H](NC(C)=O)[C@@H](N)C1 [oseltamivir]
Lung index [13]: 0.95 ± 0.13 | Lung index inhibition rate [13]: 41.0% | Lung index [14]: 0.89 ± 0.17 | Lung index ([15]; dose 27.5 mg/kg intraperitoneal, 7 days): 0.89 ± 0.20 | IL-8 [15, 23]: 80.3 ± 15.3 pg/mL | TNF-α [15, 23]: 65.2 ± 17.5 pg/mL

CCN(CC)CCOCCOC(=O)C1(c2ccccc2)CCCC1 [pentoxyverine citrate]
Cough incubation period [16]: 26.3 ± 3.3 s | Frequency of cough [16]: 55.8 ± 14.7 time/2 min | Cough incubation period [17]: 23.3 ± 4.2 s | Frequency of cough [17]: 40.6 ± 12.5 time/2 min
